Reference: patent US20070123556A1, “Treatment with Sigma Receptor Agonists Post-Stroke” (UNIVERSITY OF SOUTH FLORIDA, priority 2005, published 2007)
Read-outs that look alike come from different tables or passages of the source.

Tests used:
[1] = test system: delayed outwardly rectifying K+ channels; conditions: frog pituitary melanotrophs; read-out: IC50 inhibition of delayed outwardly rectifying K+ channels; cited from earlier work
sigma-1 receptors = sigma-1 receptors (Homo sapiens, UniProt Q99720); conditions: cited from earlier work
Chain of sigma-1 receptors (Q99720 whole entry): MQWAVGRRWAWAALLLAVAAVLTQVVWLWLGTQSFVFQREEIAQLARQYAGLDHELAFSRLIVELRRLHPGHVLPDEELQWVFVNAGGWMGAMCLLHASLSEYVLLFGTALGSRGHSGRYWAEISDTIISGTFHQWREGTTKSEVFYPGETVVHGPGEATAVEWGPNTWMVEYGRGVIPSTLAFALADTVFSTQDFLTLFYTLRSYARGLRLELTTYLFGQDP

ASIC channels = test: low-pH (pH 6.0) evoked ASIC-mediated increases in [Ca2+]i; format: cell-based, rat; conditions: 50 μM, pH 6.0, reversible
voltage-gated K channels = conditions: rat intracardiac neurons; read-out: IC50 inhibition of voltage-gated K channels; cited from earlier work
[2] = test system: cultured cortical neurons; test: in vitro ischemia (sodium azide/glucose deprivation), fura-2 [Ca2+]i; format: cell-based, rat; conditions: for IC50: Langmuir-Hill fit, read-out: IC50 (half-maximal concentration), inhibition of ischemia-evoked increases in [Ca2+]i
Protocol: The effects of sigma receptors on ischemia-induced changes in intracellular calcium concentrations were studied in cultured cortical neurons from embryonic (E18) rats. Dams were euthanatized by decapitation, uterus removed, and embryos dissected out and placed in isotonic buffer containing (in mM): 137 NaCl, 5 KCl, 0.2 NaH2PO4, 0.2 KH2PO4, 5.5 glucose, 6 sucrose (pH 7.4 with NaOH). Cortex were excised and minced, and tissue digested in isotonic buffer containing 0.25% trypsin/EDTA for 10 min at 37° C. and added to 3× volume of high glucose culture media (Dulbecco's Modified Eagle Media; Invitrogen, Inc., Carlsbad, Calif.), 10% (v/v) fetal calf serum, 100 U/ml penicillin and 0.1 mg/ml streptomycin. Cells were counted on a hemocytometer, plated (0.5×10^6 cells) on 18 mm coverslips coated with poly-l-lysine, and incubated at 37° C. under a 95% air, 5% CO2 atmosphere. After 24 hr the media was replaced with Neurobasal (Invitrogen) medium supplemented with B27 (Invitrogen) and 0.5 mM 1-glutamine to limit astrocyte proliferation in the cultures. Cells were used after 14-21 days in culture.
Intracellular free-calcium was measured using the calcium sensitive dye, fura-2 as previously described (DeHaven and Cuevas, 2004). Cells plated on coverslips were incubated for 1 hour at room temperature in physiological saline solution (PSS) consisting of (in mM): 140 NaCl, 3 KCl, 2.5 CaCl2, 1.2 MgCl2, 7.7 glucose and 10 HEPES (pH to 7.2 with NaOH), which also contained 1 μM of the membrane permeable ester form of fura-2, acetoxymethylester (fura-2 AM) and 0.1% dimethyl sulfoxide (DMSO). The coverslips were then washed in PSS (fura-2 AM free) prior to the experiments being carried out. All solutions were applied via a rapid application system identical to that previously described (Cuevas and Berg, 1998).
A DG-4 high-speed wavelength switcher (Sutter Instruments Co., Novato, Calif.) was used to apply alternating excitation light, and fluorescent emission was captured using a Sensicam digital CCD camera (Cooke Corporation, Auburn Hills, Mich.) and recorded with Slidebook 3.0 software (Intelligent Imaging Innovations, Denver, Colo.). Changes in [Ca^2+]i were calculated using the Slidebook 3 software (Intelligent Imaging Innovations) using methods described previously (DeHaven and Cuevas, 2004).
In vitro ischemia was achieved using the sodium azide/glucose deprivation model.
The control bath solution for all experiments was a physiological saline solution (PSS) containing (in mM) 140 NaCl, 1.2 MgCl2, 3 KCl, 2.5 CaCl2, 7.7 glucose and 10 HEPES, pH to 7.2 with NaOH. All drugs were applied in this solution unless otherwise noted. In vitro ischemia was induced by addition of the cytochrome oxidase inhibitor, NaN3 (4 mM), and removal of glucose from the PSS. For experiments in which multiple ischemic episodes were induced in a single cell, the order of drug application was alternatively reversed to compensate for any effects due to rundown, desensitization or ischemic preconditioning. For experiments with metaphit, cells were preincubated in 50 μM metaphit during the last 15 mm of fura-2 loading and immediately prior to experiments being conducted. The metaphit was washed off for 5 min in the bath using PSS.

glutamate receptors = conditions: cited from earlier work
[3] = test system: transient ischemia model (MCAO); conditions: intravenous, 1-2 hr following reperfusion; cited from earlier work
rat hippocampal slices = rat hippocampal slices (Thurgur and Church, 1998); read-out: value reported for inhibition of epileptiform activity; cited from earlier work
[4] = test system: cultured cortical neurons; test: spontaneous Ca2+ transients, fura-2 [Ca2+]i; format: cell-based, rat
sigma-2 receptors = sigma-2 receptors (Homo sapiens, UniProt Q5BJF2); conditions: cited from earlier work
Chain of sigma-2 receptors (Q5BJF2 whole entry): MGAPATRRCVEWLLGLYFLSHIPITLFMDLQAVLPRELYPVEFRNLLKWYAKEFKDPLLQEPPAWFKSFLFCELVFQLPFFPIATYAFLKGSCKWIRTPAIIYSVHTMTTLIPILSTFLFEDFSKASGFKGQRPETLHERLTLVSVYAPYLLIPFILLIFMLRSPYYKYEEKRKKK

voltage-gated Ca2+ = conditions: rat intracardiac neurons; read-out: IC50 inhibition of voltage-gated Ca2+; cited from earlier work

CC(C)=CCN1CCC2(C)c3cc(O)ccc3CC1C2C (single isomer, unassigned; (+)) [(+)-pentazocine]
IC50 [1]: 37 µM
affinity of sigma-1 receptors relative to ibogaine (sigma-1 receptors): ~2000 fold
decrease of low-pH evoked increases in [Ca2+]i (ASIC channels): 50%
IC50 (voltage-gated K channels): 42 µM
decrease of ischemia-induced elevations in [Ca2+]i ([2]; 10 μM): 37±5%
decrease of ischemia-induced elevations in [Ca2+]i ([2]; 10 μM, listed as (+) pentazocine): ~60%
decrease of ischemia-induced elevations in [Ca2+]i ([2]; 100 μM): 49±4%

C=CCN1CCC2(C)c3cc(O)ccc3CC1C2C (single isomer, unassigned; (+)) [(+)SKFIOO47]
inhibition of calcium elevations evoked by glutamate application (glutamate receptors; 10 μM): inhibit

CN(C)CCN(C)CCc1ccc(Cl)c(Cl)c1 [BD-1047, N-[2-(3,4-dichlorophenyl)ethyl]-N-methyl-2-(dimethylamino)ethylamine]
reduction of the effects of DTG on ischemia-evoked calcium transients ([2]; 1 pM BD-1047, with DTG): 15%
reduction of the effects of DTG on ischemia-evoked calcium transients ([2]; 10 pM BD-1047, with DTG): 55%

c1ccc(CCCCN2CCC(c3ccccc3)CC2)cc1 [PPBP, 4-phenyl-1-(4-phenylbutyl)piperidine]
decrease in neurodegeneration in brain sections [3]: 40%

O=C(OCCN1CCOCC1)C1(c2ccccc2)CCCCC1 [PRE-084]
decrease of ischemia-induced elevations in [Ca2+]i ([2]; 10 μM): 26±4%
decrease of ischemia-induced elevations in [Ca2+]i ([2]; 100 μM): 58±1%

NC1=N[C@H](O)[C@H]2[C@H]3O[C@]4(O)O[C@@H]([C@@H](O)[C@@]2(N1)[C@@H]4O)[C@]3(O)CO [TTX, tetrodotoxin]
decrease of ischemia-evoked increase in [Ca2+]i [2]: 65±4%

CCN(CC)CCOCCOC(=O)C1(c2ccccc2)CCCC1 [carbetapentane]
IC50 (rat hippocampal slices): 38 µM
affinity of sigma-1 receptors relative to sigma-2 receptors (sigma-1 receptors; sigma-1 over sigma-2): > 30 fold
inhibition of calcium elevations evoked by glutamate application (glutamate receptors; 100 μM): not
effect on spontaneous increases in [Ca2+]i (number of events) ([4]; 100 μM): significant decrease
IC50 [2]: 13 µM
IC50 ([2]; Rattus norvegicus, Cortical neurone): 13.3 µM

O=C(CCCN1CCC(O)(c2ccc(Cl)cc2)CC1)c1ccc(F)cc1 [haloperidol]
inhibition of calcium elevations evoked by glutamate application (glutamate receptors; 10 μM): inhibit

C/C=C(/C)C(=O)O[C@H]1C(C)=C2[C@H]([C@@H]1OC(=O)CCCCCCC)[C@@](C)(OC(C)=O)C[C@H](OC(=O)CCC)[C@@]1(O)[C@H]2OC(=O)[C@@]1(C)O [thapsigargin]
effect on ischemia-induced peak elevation in [Ca2+]i ([2]; 10 μM, thapsigargin by preincubation): decreased the peak elevation

ibogaine
affinity of sigma-2 receptors relative to (+)-pentazocine (sigma-2 receptors): ~6 fold
affinity of sigma-2 receptors relative to sigma-1 receptors (sigma-2 receptors; sigma-2 over sigma-1): > 40 fold
IC50 (voltage-gated Ca2+): 31 µM
effect on number of spontaneous calcium events ([4]; 50 μM): significantly decreased
decrease of low-pH evoked increases in [Ca2+]i (ASIC channels): 70%
effect on ischemia-induced elevations in [Ca2+]i ([2]; 1-100 μM): failed to inhibit

metaphit
ischemia-induced elevation in [Ca2+]i ([2]; preincubation in 50 μM metaphit, no DTG): 495 ± 68 nM

ryanodine
effect on ischemia-induced peak elevation in [Ca2+]i [2]: did not significantly alter
